Earlier results, collected in patent publication EP2367539B1, “NOVEL COMPOSITION FOR TREATMENT OF ESSENTIAL THROMBOCYTHEMIA” (AOP Orphan Pharmaceuticals AG, priority 2008, dated 2010).

Tests used:
PDE 3 [1] = details: compared with anagrelide
PDE 3 [2] = test system: PDE 3

Structure (SMILES)	potency as an inhibitor of PDE 3 (PDE 3 [1])	platelet reduction and PDE 3 inhibitory activity (PDE 3 [2])
O=C1NC2=Nc3ccc(Cl)c(Cl)c3CN2C1O (centres unmarked) [3-hydroxyanagrelide]	considerably more potent than anagrelide	–
NC1=Nc2ccc(Cl)c(Cl)c2CN1 [RL 603, 2-amino-5,6-dichloro-3,4-dihydroquinazolone]	–	lacks these activities
